Experiments:
[1] = test system: Mus musculus; assay: Prodrug activation in mouse assessed as (S)-8-(2-amino-6-((R)-1-(5-chloro-3'-sulfamoylbiphenyl-2-yl)-2,2,2-trifluoroethoxy)pyrimidin-4-yl)-2,8-diazaspiro[4.5]decane-3-carboxylic acid formation at 10 to 50 mg/kg, po administered as single dose; assay type: organism-based; details: in vivo
[2] = test system: Mus musculus; assay: In vivo inhibition of TPH1 in mouse assessed as reduction in 5-HT level in intestinal mucosa at 10 mg/kg, po administered daily as single dose relative to control; assay type: functional
[3] = test system: Mus musculus; assay: In vivo inhibition of TPH1 in mouse assessed as reduction in 5-HT level in intestinal mucosa at 50 mg/kg, po administered daily as single dose relative to control; assay type: functional
[4] = test system: Mus musculus; assay: Prodrug activation in mouse assessed as (S)-8-(2-amino-6-((R)-1-(5-chloro-3'-methoxybiphenyl-2-yl)-2,2,2-trifluoroethoxy)pyrimidin-4-yl)-2,8-diazaspiro[4.5]decane-3-carboxylic acid formation at 10 to 50 mg/kg, po administered as single dose; assay type: organism-based; details: in vivo
[5] = molecular target: T1, Tryptophan 5-hydroxylase 1 (Homo sapiens, UniProt P17752)
T1 sequence (P17752 whole entry): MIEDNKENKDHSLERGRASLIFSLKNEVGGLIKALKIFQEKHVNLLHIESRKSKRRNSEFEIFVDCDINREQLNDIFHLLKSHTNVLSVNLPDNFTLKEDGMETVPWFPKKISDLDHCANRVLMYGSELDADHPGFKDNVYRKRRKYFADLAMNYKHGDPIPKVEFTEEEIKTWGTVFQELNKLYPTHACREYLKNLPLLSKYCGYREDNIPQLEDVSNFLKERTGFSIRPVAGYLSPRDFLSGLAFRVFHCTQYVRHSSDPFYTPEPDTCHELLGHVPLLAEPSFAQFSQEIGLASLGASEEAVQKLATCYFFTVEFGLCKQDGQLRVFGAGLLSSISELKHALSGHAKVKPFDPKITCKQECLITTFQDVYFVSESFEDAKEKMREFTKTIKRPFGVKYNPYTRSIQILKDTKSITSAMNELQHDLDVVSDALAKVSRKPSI
Description: Inhibition of TPH1 (unknown origin)

[6] = (§1) Half life in beagle dog at 1 mg/kg, iv; assay type: ADME, organism-based, Canis lupus familiaris; details: beagle, in vivo
[7] = test system: Canis familiaris; assay: Clearance in beagle dog at 1 mg/kg, iv relative to hepatic blood flow; assay type: ADME, organism-based, Canis lupus familiaris; details: in vivo
[8] = test system: Mus musculus; assay: Drug level in mouse treated with (S)-ethyl 8-(2-amino-6-((R)-1-(5-chlorobiphenyl-2-yl)-2,2,2-trifluoroethoxy)pyrimidin-4-yl)-2,8-diazaspiro[4.5]decane-3-carboxylate at 10 to 50 mg/kg, po administered as single dose; assay type: ADME, organism-based; details: in vivo
[9] = test system: Rattus norvegicus; assay: Clearance in rat at 1 mg/kg, iv relative to hepatic blood flow; assay type: ADME, organism-based; details: in vivo
[10] = (§2) Volume of distribution at steady state in beagle dog at 1 mg/kg, iv; assay type: ADME, organism-based, Canis lupus familiaris; details: beagle, in vivo, read-out: Vdss
[11] = test system: Rattus norvegicus; assay: (§3) Half life in rat at 1 mg/kg, iv; assay type: ADME, organism-based; details: in vivo
[12] = molecular target: T2, Tryptophan 5-hydroxylase 2 (Homo sapiens, UniProt Q8IWU9); assay: Inhibition of TPH2 (unknown origin)
T2 sequence (Q8IWU9 whole entry): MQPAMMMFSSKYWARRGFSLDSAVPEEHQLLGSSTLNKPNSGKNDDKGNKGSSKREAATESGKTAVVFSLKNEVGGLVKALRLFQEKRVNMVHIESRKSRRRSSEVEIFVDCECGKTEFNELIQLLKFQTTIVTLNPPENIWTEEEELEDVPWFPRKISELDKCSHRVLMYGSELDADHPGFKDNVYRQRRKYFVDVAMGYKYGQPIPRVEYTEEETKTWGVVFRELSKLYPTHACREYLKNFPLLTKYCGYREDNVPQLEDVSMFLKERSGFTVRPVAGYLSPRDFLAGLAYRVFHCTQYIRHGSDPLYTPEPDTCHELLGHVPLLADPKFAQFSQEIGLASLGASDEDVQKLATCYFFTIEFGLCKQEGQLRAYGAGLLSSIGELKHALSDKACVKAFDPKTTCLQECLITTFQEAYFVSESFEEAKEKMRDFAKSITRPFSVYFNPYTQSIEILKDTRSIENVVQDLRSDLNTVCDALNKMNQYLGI

[13] = Clearance in beagle dog at 1 mg/kg, iv; assay type: ADME, organism-based, Canis lupus familiaris; details: in vivo
[14] = test system: Rattus norvegicus; assay: (§4) Volume of distribution at steady state in rat at 1 mg/kg, iv; assay type: ADME, organism-based; details: in vivo
[15] = test system: Mus musculus; assay: Prodrug activation in mouse assessed as (S)-8-(2-amino-6-((R)-1-(5-chloro-3'-(trifluoromethyl)biphenyl-2-yl)-2,2,2-trifluoroethoxy)pyrimidin-4-yl)-2,8-diazaspiro[4.5]decane-3-carboxylic acid formation at 10 to 50 mg/kg, po administered as single dose; assay type: organism-based; details: in vivo
[16] = test system: Rattus norvegicus; assay: Cmax in rat assessed as (S)-8-(2-amino-6-((R)-1-(5-chlorobiphenyl-2-yl)-2,2,2-trifluoroethoxy)pyrimidin-4-yl)-2,8-diazaspiro[4.5]decane-3-carboxylic acid level at 25 mg/kg, po; assay type: ADME, organism-based; design: dose 25 mg/kg, route oral; details: in vivo
[17] = test system: Canis familiaris; assay: as §1; assay type: ADME, organism-based, Canis lupus familiaris; details: in vivo
[18] = Clearance in rat at 1 mg/kg, iv; assay type: ADME, organism-based; details: in vivo
[19] = test system: Mus musculus; assay: Prodrug activation in mouse assessed as (S)-8-(2-amino-6-((R)-1-(5-chlorobiphenyl-2-yl)-2,2,2-trifluoroethoxy)pyrimidin-4-yl)-2,8-diazaspiro[4.5]decane-3-carboxylic acid formation at 10 to 50 mg/kg, po administered as single dose; assay type: organism-based; details: in vivo
[20] = test system: Canis familiaris; assay: Half life in beagle dog assessed as (S)-8-(2-amino-6-((R)-1-(5-chlorobiphenyl-2-yl)-2,2,2-trifluoroethoxy)pyrimidin-4-yl)-2,8-diazaspiro[4.5]decane-3-carboxylic acid level at 1 mg/kg, iv; assay type: ADME, organism-based, Canis lupus familiaris; details: in vivo
[21] = test system: Canis familiaris; assay: AUC (0 to last) in beagle dog assessed as (S)-8-(2-amino-6-((R)-1-(5-chlorobiphenyl-2-yl)-2,2,2-trifluoroethoxy)pyrimidin-4-yl)-2,8-diazaspiro[4.5]decane-3-carboxylic acid level at 25 mg/kg, po; assay type: ADME, organism-based, Canis lupus familiaris; design: dose 25 mg/kg, time 0 - last, route oral; details: in vivo
[22] = test system: Canis familiaris; assay: as §2; assay type: ADME, organism-based, Canis lupus familiaris; details: in vivo
[23] = as §3; assay type: ADME, organism-based; details: in vivo
[24] = test system: Canis familiaris; assay: Cmax in beagle dog assessed as (S)-8-(2-amino-6-((R)-1-(5-chlorobiphenyl-2-yl)-2,2,2-trifluoroethoxy)pyrimidin-4-yl)-2,8-diazaspiro[4.5]decane-3-carboxylic acid level at 25 mg/kg, po; assay type: ADME, organism-based, Canis lupus familiaris; design: dose 25 mg/kg, route oral; details: in vivo
[25] = test system: Rattus norvegicus; assay: AUC (0 to last) in rat assessed as (S)-8-(2-amino-6-((R)-1-(5-chlorobiphenyl-2-yl)-2,2,2-trifluoroethoxy)pyrimidin-4-yl)-2,8-diazaspiro[4.5]decane-3-carboxylic acid level at 25 mg/kg, po; assay type: ADME, organism-based; design: dose 25 mg/kg, route oral, time 0 - last; details: in vivo
[26] = as §4; assay type: ADME, organism-based; details: in vivo, read-out: Vdss
[27] = Drug metabolism in rat hepatocytes assessed as 8-(2-amino-6-((R)-1-(2-(3-carboxy-1H-pyrazol-1-yl)-4-chlorophenyl)-2,2,2-trifluoroethoxy)pyrimidin-4-yl)-2,8-diazaspiro[4.5]decane-3-carboxylic acid formation by LC/UV/MS method; assay type: ADME, cell-based, Hepatocyte
[28] = Prodrug activation in rat hepatocytes assessed as ester hydrolysis by measuring 8-(2-amino-6-((R)-1-(4-chloro-2-(3-methyl-1H-pyrazol-1-yl)phenyl)-2,2,2-trifluoroethoxy)pyrimidin-4-yl)-2,8-diazaspiro[4.5]decane-3-carboxylic acid level by LC/UV/MS method; assay type: cell-based, Hepatocyte
[29] = Drug metabolism in rat hepatocytes assessed as 8-(2-amino-6-((R)-1-(4-chloro-2-(3-(sulfooxymethyl)-1H-pyrazol-1-yl)phenyl)-2,2,2-trifluoroethoxy)pyrimidin-4-yl)-2,8-diazaspiro[4.5]decane-3-carboxylic acid formation by LC/UV/MS method; assay type: ADME, cell-based, Hepatocyte
[30] = Drug metabolism in rat hepatocytes assessed as hydroxylation by measuring 8-(2-amino-6-((R)-1-(4-chloro-2-(3-(hydroxymethyl)-1H-pyrazol-1-yl)phenyl)-2,2,2-trifluoroethoxy)pyrimidin-4-yl)-2,8-diazaspiro[4.5]decane-3-carboxylic acid level by LC/UV/MS method; assay type: ADME, cell-based, Hepatocyte
[31] = test system: Rattus norvegicus; assay: AUC (0 to last) in rat assessed as (S)-8-(2-amino-6-((R)-1-(3',4'-dimethyl-3-(3-methyl-1H-pyrazol-1-yl)biphenyl-4-yl)-2,2,2-trifluoroethoxy)pyrimidin-4-yl)-2,8-diazaspiro[4.5]decane-3-carboxylic acid level at 25 mg/kg, po; assay type: ADME, organism-based; design: dose 25 mg/kg, time 0 - last, route oral; details: in vivo
[32] = test system: Rattus norvegicus; assay: Cmax in rat assessed as (S)-8-(2-amino-6-((R)-1-(3',4'-dimethyl-3-(3-methyl-1H-pyrazol-1-yl)biphenyl-4-yl)-2,2,2-trifluoroethoxy)pyrimidin-4-yl)-2,8-diazaspiro[4.5]decane-3-carboxylic acid level at 25 mg/kg, po; assay type: ADME, organism-based; design: dose 25 mg/kg, route oral; details: in vivo
[33] = test system: Rattus norvegicus; assay: Half life in rat assessed as (S)-8-(2-amino-6-((R)-1-(3',4'-dimethyl-3-(3-methyl-1H-pyrazol-1-yl)biphenyl-4-yl)-2,2,2-trifluoroethoxy)pyrimidin-4-yl)-2,8-diazaspiro[4.5]decane-3-carboxylic acid level at 1 mg/kg, iv; assay type: ADME, organism-based; details: in vivo
[34] = test system: Mus musculus; assay: Prodrug activation in mouse assessed as (S)-8-(2-amino-6-((R)-1-(5-chloro-3'-(methylsulfonyl)biphenyl-2-yl)-2,2,2-trifluoroethoxy)pyrimidin-4-yl)-2,8-diazaspiro[4.5]decane-3-carboxylic acid formation at 10 to 50 mg/kg, po administered as single dose; assay type: organism-based; details: in vivo

Compound: CCOC(=O)[C@@H]1CC2(CCN(c3cc(O[C@H](c4ccc(Cl)cc4-c4cccc(S(N)(=O)=O)c4)C(F)(F)F)nc(N)n3)CC2)CN1
- Drug metabolism [1]: Metabolite_Detected
- inhibition in vivo at 10 mg/kg [2]: 15%
- inhibition in vivo at 50 mg/kg [3]: 42%

Compound: CCOC(=O)[C@@H]1CC2(CCN(c3cc(O[C@H](c4ccc(Cl)cc4-c4cccc(OC)c4)C(F)(F)F)nc(N)n3)CC2)CN1
- Drug metabolism [4]: Metabolite_Detected
- inhibition in vivo at 10 mg/kg [2]: 19%
- inhibition in vivo at 50 mg/kg [3]: 46%

Compound: Nc1nc(O[C@H](c2ccc(Cl)cc2-c2ccccc2)C(F)(F)F)cc(N2CCC3(CC2)CN[C@H](C(=O)O)C3)n1 [RODATRISTAT]
- IC50 [5]: 33 nM
- half-life [6]: 4.8 h
- CL [7]: 4%
- Drug metabolism [8]: Metabolite_Detected
- CL [9]: 1.2%
- Vd [10]: 0.24 L/kg
- t1/2 [11]: 12.1 h
- IC50 [12]: 7 nM
- clearance [13]: 1.2 mL/min/kg
- Vdss [14]: 7.8 L/kg

Compound: CCOC(=O)[C@@H]1CC2(CCN(c3cc(O[C@H](c4ccc(Cl)cc4-c4cccc(C(F)(F)F)c4)C(F)(F)F)nc(N)n3)CC2)CN1
- Drug metabolism [15]: Metabolite_Detected
- inhibition in vivo at 10 mg/kg [2]: 31%
- inhibition in vivo at 50 mg/kg [3]: 64%

Compound: CCOC(=O)[C@@H]1CC2(CCN(c3cc(O[C@H](c4ccc(Cl)cc4-c4ccccc4)C(F)(F)F)nc(N)n3)CC2)CN1 [RODATRISTAT ETHYL]
- Cmax [16]: 722 ng/mL
- t1/2 [17]: 5.05 h
- CL [7]: 46%
- clearance [18]: 106 mL/min/kg
- Drug metabolism [19]: Metabolite_Detected
- t1/2 [20]: 7.59 h
- CL [9]: > 100%
- inhibition in vivo at 10 mg/kg [2]: 55%
- AUClast [21]: 32398 ng·h/mL
- Vdss [22]: 2.34 L/kg
- half-life [23]: 3.18 h
- Cmax [24]: 2797 ng/mL
- AUClast [25]: 5374 ng·h/mL
- inhibition in vivo at 50 mg/kg [3]: 71%
- Vd [26]: 12.7 L/kg

Compound: CCOC(=O)C1CC2(CCN(c3cc(O[C@H](c4ccc(Cl)cc4-n4ccc(C)n4)C(F)(F)F)nc(N)n3)CC2)CN1 (some centres undefined)
- Drug metabolism [27]: Metabolite_Detected
- Drug metabolism [28]: Metabolite_Detected
- Drug metabolism [29]: Metabolite_Detected
- Drug metabolism [30]: Metabolite_Detected

Compound: CCOC(=O)[C@@H]1CC2(CCN(c3cc(O[C@H](c4ccc(-c5ccc(C)c(C)c5)cc4-n4ccc(C)n4)C(F)(F)F)nc(N)n3)CC2)CN1
- AUClast [31]: 1634 ng·h/mL
- Cmax [32]: 240 ng/mL
- t1/2 [33]: 3.6 h
- inhibition in vivo at 50 mg/kg [3]: 70%

Compound: CCOC(=O)[C@@H]1CC2(CCN(c3cc(O[C@H](c4ccc(Cl)cc4-c4cccc(S(C)(=O)=O)c4)C(F)(F)F)nc(N)n3)CC2)CN1
- Drug metabolism [34]: Metabolite_Detected
- inhibition in vivo at 50 mg/kg [3]: 38%
